The record followed here is US12447153B2, “HER2 mutation inhibitors” (Array BioPharma Inc., priority 2021, dated 2025).

The target of assay [1] is EGFR (Homo sapiens (Human), UniProt P00533). Description: ErbB Enzyme Assay (HTRF KinEASE-TK), Assay 3. Type of assay: biochemical.
Assay [2] concerns the target EGFR wild type (EGFR WT) (Homo sapiens (Human), UniProt P00533). Description: Cellular Phosphorylation Assay, Assay 5 (EGF-stimulated EGFR phosphorylation, NIH 3T3 cells). The format is cell-based.
For assay [3], the target named is ErbB2 WT (Homo sapiens (Human), UniProt P04626). Description: ErbB Enzyme Assay (HTRF KinEASE-TK), Assay 2. Type of assay: biochemical.
Chain of ErbB2 WT (P04626 23-1255): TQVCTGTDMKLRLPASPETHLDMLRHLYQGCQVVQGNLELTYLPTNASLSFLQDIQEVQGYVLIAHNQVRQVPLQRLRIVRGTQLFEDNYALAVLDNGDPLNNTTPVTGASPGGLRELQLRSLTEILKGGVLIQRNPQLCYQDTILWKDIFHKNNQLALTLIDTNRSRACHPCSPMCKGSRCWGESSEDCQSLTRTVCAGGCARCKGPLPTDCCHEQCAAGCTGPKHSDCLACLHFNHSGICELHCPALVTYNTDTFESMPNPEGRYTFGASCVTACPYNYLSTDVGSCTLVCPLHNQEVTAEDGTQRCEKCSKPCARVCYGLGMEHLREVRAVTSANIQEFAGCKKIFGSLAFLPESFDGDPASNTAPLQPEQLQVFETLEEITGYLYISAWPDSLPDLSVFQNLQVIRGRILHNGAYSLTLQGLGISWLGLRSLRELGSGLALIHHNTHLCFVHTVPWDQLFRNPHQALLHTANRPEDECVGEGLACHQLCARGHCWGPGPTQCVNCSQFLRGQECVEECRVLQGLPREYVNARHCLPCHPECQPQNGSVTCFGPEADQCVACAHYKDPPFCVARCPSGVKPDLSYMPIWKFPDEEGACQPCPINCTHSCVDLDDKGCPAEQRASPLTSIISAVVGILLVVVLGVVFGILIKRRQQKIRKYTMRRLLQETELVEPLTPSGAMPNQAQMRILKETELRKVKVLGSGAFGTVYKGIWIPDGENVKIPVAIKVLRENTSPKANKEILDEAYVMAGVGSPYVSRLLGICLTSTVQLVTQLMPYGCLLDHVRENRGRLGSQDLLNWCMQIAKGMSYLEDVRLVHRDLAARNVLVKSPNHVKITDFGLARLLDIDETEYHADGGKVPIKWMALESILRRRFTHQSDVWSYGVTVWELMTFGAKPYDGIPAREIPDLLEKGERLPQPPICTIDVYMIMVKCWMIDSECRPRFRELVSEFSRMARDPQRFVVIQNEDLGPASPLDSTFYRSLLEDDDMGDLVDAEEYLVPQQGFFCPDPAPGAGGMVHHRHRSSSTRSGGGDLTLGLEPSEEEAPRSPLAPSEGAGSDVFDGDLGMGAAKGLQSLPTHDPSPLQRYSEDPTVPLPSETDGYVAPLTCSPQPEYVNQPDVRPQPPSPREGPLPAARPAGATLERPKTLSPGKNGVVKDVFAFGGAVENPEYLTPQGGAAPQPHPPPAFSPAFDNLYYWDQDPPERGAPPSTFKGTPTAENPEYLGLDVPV
Assay [4] has as its target ErbB2 with Exon 20 YVMA insertion (HER2-YVMA) (Homo sapiens (Human), UniProt P04626, INS775YVMA). Description: Cellular Phosphorylation Assay, Assay 4 (constitutive ErbB2 phosphorylation, NIH 3T3 cells). Type of assay: cell-based.
Setting [5] is: cellular EGFR WT phosphorylation, EGF-stimulated.
[6] abbreviates: cellular ErbB2 YVMA phosphorylation.
The mark [7] stands for this setting: EGF-stimulated EGFR WT phosphorylation.

Chain of ErbB2 with Exon 20 YVMA insertion (HER2-YVMA) (P04626 other isoform, or with tags, fused parts or gaps ins YVMA behind 775): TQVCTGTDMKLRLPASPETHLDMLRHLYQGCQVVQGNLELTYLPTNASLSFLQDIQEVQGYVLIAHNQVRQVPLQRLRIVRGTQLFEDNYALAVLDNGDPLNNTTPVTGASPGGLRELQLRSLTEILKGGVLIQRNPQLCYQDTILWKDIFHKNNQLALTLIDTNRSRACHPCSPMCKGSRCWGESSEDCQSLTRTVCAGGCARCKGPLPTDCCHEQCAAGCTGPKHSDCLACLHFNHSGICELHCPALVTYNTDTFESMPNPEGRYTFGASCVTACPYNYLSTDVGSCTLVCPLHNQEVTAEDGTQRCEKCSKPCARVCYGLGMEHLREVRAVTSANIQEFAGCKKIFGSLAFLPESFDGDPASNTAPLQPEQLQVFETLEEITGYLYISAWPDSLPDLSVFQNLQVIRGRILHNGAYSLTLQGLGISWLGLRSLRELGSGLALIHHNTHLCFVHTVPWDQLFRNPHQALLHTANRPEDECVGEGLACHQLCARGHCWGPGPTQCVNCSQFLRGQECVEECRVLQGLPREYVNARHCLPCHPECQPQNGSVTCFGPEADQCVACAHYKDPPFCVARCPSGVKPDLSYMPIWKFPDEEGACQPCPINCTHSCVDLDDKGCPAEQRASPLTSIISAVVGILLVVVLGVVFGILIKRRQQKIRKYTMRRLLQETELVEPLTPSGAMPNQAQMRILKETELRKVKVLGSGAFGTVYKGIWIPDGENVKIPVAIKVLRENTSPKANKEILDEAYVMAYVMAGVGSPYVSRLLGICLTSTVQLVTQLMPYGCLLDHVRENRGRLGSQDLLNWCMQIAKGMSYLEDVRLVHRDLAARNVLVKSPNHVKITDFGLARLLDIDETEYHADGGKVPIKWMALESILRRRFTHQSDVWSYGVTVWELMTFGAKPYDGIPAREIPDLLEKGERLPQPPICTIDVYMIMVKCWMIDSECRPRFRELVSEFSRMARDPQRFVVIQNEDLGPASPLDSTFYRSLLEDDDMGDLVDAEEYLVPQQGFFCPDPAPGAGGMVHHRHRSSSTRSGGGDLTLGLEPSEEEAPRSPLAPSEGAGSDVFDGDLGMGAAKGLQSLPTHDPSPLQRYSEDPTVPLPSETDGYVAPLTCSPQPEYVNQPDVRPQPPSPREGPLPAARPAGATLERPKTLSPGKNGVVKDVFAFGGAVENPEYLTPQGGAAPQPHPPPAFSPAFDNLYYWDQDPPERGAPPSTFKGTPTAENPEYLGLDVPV
Chain of EGFR wild type (EGFR WT) (P00533 25-1210): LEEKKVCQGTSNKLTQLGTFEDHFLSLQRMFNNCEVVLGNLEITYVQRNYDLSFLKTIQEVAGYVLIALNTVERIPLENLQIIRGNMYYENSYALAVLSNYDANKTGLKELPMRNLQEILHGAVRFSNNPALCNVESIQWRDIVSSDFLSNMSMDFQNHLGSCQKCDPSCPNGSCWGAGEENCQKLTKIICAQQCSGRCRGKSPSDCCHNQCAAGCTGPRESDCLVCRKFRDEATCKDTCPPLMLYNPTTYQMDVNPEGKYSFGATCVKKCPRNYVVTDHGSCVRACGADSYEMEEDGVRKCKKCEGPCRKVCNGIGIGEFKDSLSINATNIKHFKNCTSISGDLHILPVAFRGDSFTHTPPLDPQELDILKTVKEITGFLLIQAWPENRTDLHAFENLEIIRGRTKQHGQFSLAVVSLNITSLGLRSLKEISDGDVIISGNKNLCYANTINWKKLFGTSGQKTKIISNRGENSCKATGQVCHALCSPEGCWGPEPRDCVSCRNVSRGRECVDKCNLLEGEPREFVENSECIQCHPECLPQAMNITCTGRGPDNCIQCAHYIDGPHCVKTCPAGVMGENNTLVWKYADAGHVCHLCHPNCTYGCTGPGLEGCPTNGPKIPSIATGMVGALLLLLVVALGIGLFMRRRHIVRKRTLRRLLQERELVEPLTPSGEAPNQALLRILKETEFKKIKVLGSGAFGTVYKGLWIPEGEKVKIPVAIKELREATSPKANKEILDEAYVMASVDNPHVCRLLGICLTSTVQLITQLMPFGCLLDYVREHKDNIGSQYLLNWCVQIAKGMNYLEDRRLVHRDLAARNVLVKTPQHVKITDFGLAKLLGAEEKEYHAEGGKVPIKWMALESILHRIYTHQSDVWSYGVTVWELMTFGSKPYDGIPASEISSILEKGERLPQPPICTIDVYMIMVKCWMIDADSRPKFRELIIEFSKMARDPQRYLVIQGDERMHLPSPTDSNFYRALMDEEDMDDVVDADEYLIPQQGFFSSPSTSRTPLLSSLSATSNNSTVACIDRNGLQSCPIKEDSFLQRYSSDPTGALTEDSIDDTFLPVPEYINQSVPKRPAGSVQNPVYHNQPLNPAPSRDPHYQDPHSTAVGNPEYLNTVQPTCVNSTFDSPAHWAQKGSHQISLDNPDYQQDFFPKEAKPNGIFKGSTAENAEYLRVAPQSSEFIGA
Chain of EGFR (P00533 25-1210): as above

As for `C=CC(=O)N1CCN(c2ccc3ncnc(Nc4cc(C)c(Oc5ccn6ncnc6c5)cc4F)c3n2)C[C@H]1COC` [Example 347], the half-inhibitory concentration (IC50) in assay [1] (EGFR enzyme assay) is 772 nM; in assay [2] (setting [5]), 380 nM; in assay [3] (ErbB2 WT enzyme assay) it was 38 nM; in assay [4] (setting [6]), 8.2 nM.
For `C=CC(=O)N1CCN(c2ccc3ncnc(Nc4ccc(Oc5cc(F)c6c(c5)ncn6C)c(C)c4)c3n2)CC12CC2` [Example 281] the same measures were 102 nM, 129 nM, 10.4 nM and 10.9 nM.
As to `C=CC(=O)N1CCN(c2ccc3ncnc(Nc4ccc(Oc5ccn6ncnc6c5)c(C)c4F)c3n2)C[C@@H]1C1CC1` (racemic) [Example 163, rac-1-(4-(4-((4-([1,2,4]triazolo[1,5-a]pyridin-7-yloxy)-2-fluoro-3-methylphenyl)amino)pyrido[3,2-d]pyrimidin-6-yl)-2-cyclopropylpiperazin-1-yl)prop-2-en-1-one], the IC50 was determined as 8790 nM in assay [1] (EGFR enzyme), 1510 nM in assay [2] (setting [7]), 42.3 nM in assay [3] (ErbB2 WT enzyme) and 18.8 nM in assay [4] (ErbB2 YVMA phosphorylation).
Regarding `C=CC(=O)N1C[C@H](c2ccc3ncnc(Nc4ccc(Oc5ccn6ncnc6c5)c(C)c4F)c3n2)CC1(C)C` (racemic) [Example 296], the IC50 is 881 nM in assay [1] (EGFR enzyme assay), 1440 nM in assay [2] (setting [5]), 58.5 nM in assay [3] (ErbB2 WT enzyme assay) and 36.1 nM in assay [4] (setting [6]).
In the case of `C=CC(=O)N1CCN(c2ccc3ncnc(Nc4ccc(Oc5ccc6scnc6c5)c(C)c4F)c3n2)CC1(C)C` [Example 243, 1-(4-(4-((4-(benzo[d]thiazol-5-yloxy)-2-fluoro-3-methylphenyl)amino)pyrido[3,2-d]pyrimidin-6-yl)-2,2-dimethylpiperazin-1-yl)prop-2-en-1-one], the IC50 in assay [1] (EGFR enzyme) stood at 1210 nM; in assay [2] (setting [7]), 666 nM; in assay [3] (ErbB2 WT enzyme), 338 nM; in assay [4] (ErbB2 YVMA phosphorylation), 50.2 nM.
In the case of `C=CC(=O)N1[C@@H](C)CN(c2ccc3ncnc(Nc4cc(C)c(Oc5ccc6c(c5)ncn6C)cc4F)c3n2)C[C@@H]1C` [Example 257], the IC50 in assay [1] (EGFR enzyme assay) is at least 10000 nM; in assay [2] (setting [5]) it was at least 5000 nM; in assay [3] (ErbB2 WT enzyme assay), 54.2 nM; in assay [4] (setting [6]), 115 nM.
On to `C=CC(=O)N1CCN(c2ccc3ncnc(Nc4ccc(Oc5cnc6c(c5)ncn6C)c(C)c4F)c3n2)CC12CC2` [Example 450], for which the IC50 in assay [1] (EGFR enzyme assay) was 480 nM; in assay [2] (setting [5]), 1160 nM; in assay [3] (ErbB2 WT enzyme assay), 67.3 nM; in assay [4] (setting [6]), 9.8 nM.
For `C=CC(=O)N1CCCC(c2ccc3ncnc(Nc4ccc(Oc5ccn6ncnc6c5)c(Cl)c4F)c3n2)CC1` (stereo not shown) [Example 399] the same measures were 177 nM, 461 nM, 1.9 nM and 19 nM.
Take `CC#CC(=O)N1CCC[C@@H](c2ccc3ncnc(Nc4ccc(Oc5ccn6ncnc6c5)c(C)c4F)c3n2)CC1` (single isomer, unassigned) [Example 212]: the IC50 was 3380 nM in assay [1] (EGFR enzyme), at least 5000 nM in assay [2] (setting [7]), 66.2 nM in assay [3] (ErbB2 WT enzyme) and 386 nM in assay [4] (ErbB2 YVMA phosphorylation).
As to `C=CC(=O)N1[C@H]2CC[C@@H]1[C@H](c1ccc3ncnc(Nc4cc(C)c(Oc5ccn6ncnc6c5)cc4F)c3n1)CC2` [Example 428], the IC50 in assay [1] (EGFR enzyme assay) is 1480 nM; in assay [2] (setting [5]), 954 nM; in assay [3] (ErbB2 WT enzyme assay), 62.4 nM; in assay [4] (setting [6]), 24.7 nM.
Take `C=CC(=O)N1CCC(c2ccc3ncnc(Nc4ccc(Oc5ccc6c(c5)ncn6C)c(C)c4)c3n2)C(C)C1` (stereo not drawn) [Example 125, 1-((3RS,4R*)3-methyl-4-(4-((3-methyl-4-((1-methyl-1H-benzo[d]imidazol-5-yl)oxy)phenyl)amino)pyrido[3,2-d]pyrimidin-6-yl)piperidin-1-yl)prop-2-en-1-one]: the IC50 is 7480 nM in assay [1] (EGFR enzyme), at least 5000 nM in assay [2] (setting [7]), 48.2 nM in assay [3] (ErbB2 WT enzyme) and 40 nM in assay [4] (ErbB2 YVMA phosphorylation).
As to `C=CC(=O)N1CCCN(c2ccc3ncnc(Nc4ccc(Oc5ccn6ncnc6c5)c(C)c4F)c3n2)CC1` [Example 100, 1-(4-(4-((4-([1,2,4]triazolo[1,5-a]pyridin-7-yloxy)-2-fluoro-3-methylphenyl)amino)pyrido[3,2-d]pyrimidin-6-yl)-1,4-diazepan-1-yl)prop-2-en-1-one], the IC50 is 9570 nM in assay [1] (EGFR enzyme), at least 5000 nM in assay [2] (setting [7]), 132 nM in assay [3] (ErbB2 WT enzyme) and 66.1 nM in assay [4] (ErbB2 YVMA phosphorylation).
For `C=CC(=O)N1C2CC1CN(c1ccc3ncnc(Nc4cc(Cl)c(Oc5cnc6c(c5)ncn6C)cc4F)c3n1)C2` [Example 241, 1-(3-(4-((5-chloro-2-fluoro-4-((3-methyl-3H-imidazo[4,5-b]pyridin-6-yl)oxy)phenyl)amino)pyrido[3,2-d]pyrimidin-6-yl)-3,6-diazabicyclo[3.1.1]heptan-6-yl)prop-2-en-1-one] the same measures were at least 10000 nM, at least 5000 nM, 354 nM and 22.2 nM.
Take `C=CC(=O)N1C[C@H]2CC[C@H](c3ccc4ncnc(Nc5cc(C)c(Oc6ccn7ncnc7c6)cc5F)c4n3)[C@H]2C1` [Example 410]: the IC50 is 3670 nM in assay [1] (EGFR enzyme assay), at least 5000 nM in assay [2] (setting [5]), 120 nM in assay [3] (ErbB2 WT enzyme assay) and 82.7 nM in assay [4] (setting [6]).
For `C=CC(=O)N1CC(Sc2ccc3ncnc(Nc4ccc(Oc5ccc6c(c5)ncn6C)c(C)c4F)c3n2)C1` [Example 61, 1-(3-((4-((2-fluoro-3-methyl-4-((1-methyl-1H-benzo[d]imidazol-5-yl)oxy)phenyl)amino)pyrido[3,2-d]pyrimidin-6-yl)thio)azetidin-1-yl)prop-2-en-1-one], the IC50 in assay [1] (EGFR enzyme) turned out to be 283 nM; in assay [2] (setting [7]), 976 nM; in assay [3] (ErbB2 WT enzyme), 16.3 nM; in assay [4] (ErbB2 YVMA phosphorylation), 34.4 nM.
`C=CC(=O)N1CCN(c2nc3c(Nc4ccc(Oc5ccn6ncnc6c5)c(C)c4F)ncnc3cc2Cl)CC1(C)C` [Example 160, 1-(4-(4-((4-([1,2,4]triazolo[1,5-a]pyridin-7-yloxy)-2-fluoro-3-methylphenyl)amino)-7-chloropyrido[3,2-d]pyrimidin-6-yl)-2,2-dimethylpiperazin-1-yl)prop-2-en-1-one]: the IC50 was at least 10000 nM in assay [1] (EGFR enzyme), at least 5000 nM in assay [2] (setting [7]), 515 nM in assay [3] (ErbB2 WT enzyme) and 165 nM in assay [4] (ErbB2 YVMA phosphorylation).
For `C=CC(=O)N1CCN(c2ccc3ncnc(Nc4ccc(Oc5ccn6ncnc6c5)c(C)c4F)c3n2)C[C@@H]1C1CC1` [Example 285], the IC50 in assay [1] (EGFR enzyme assay) is at least 10000 nM; in assay [2] (setting [5]) it was at least 5000 nM; in assay [3] (ErbB2 WT enzyme assay) it was 65.8 nM; in assay [4] (setting [6]), 34.1 nM.
The matching figures for `C=CC(=O)N1CCN(c2ccc3ncnc(Nc4ccc(Oc5ccc6c(c5)ncn6C)c(C)c4F)c3n2)CC12CC2` [Example 339]: at least 10000 nM, 361 nM, 14.1 nM and 16.4 nM.
Consider `C=CC(=O)N1CC[C@H]2C[C@@H]1CN2c1ccc2ncnc(Nc3cc(Cl)c(Oc4ccn5ncnc5c4)cc3F)c2n1` [Example 439], for which the IC50 was at least 10000 nM in assay [1] (EGFR enzyme assay), at least 5000 nM in assay [2] (setting [5]), 148 nM in assay [3] (ErbB2 WT enzyme assay) and 933 nM in assay [4] (setting [6]).
Consider `C=CC(=O)N1C[C@H]2C[C@@H]1[C@H](c1ccc3ncnc(Nc4cc(C)c(Oc5ccn6ncnc6c5)cc4F)c3n1)C2` [Example 371], for which the concentration for half-maximal inhibition (IC50) in assay [1] (EGFR enzyme assay) is 3440 nM; in assay [2] (setting [5]), at least 5000 nM; in assay [3] (ErbB2 WT enzyme assay), 55 nM; in assay [4] (setting [6]), 82.4 nM.
Regarding `C=CC(=O)N1CCN(c2ccc3ncnc(Nc4cc(Cl)c(Oc5cnc6c(c5)ncn6C)cc4F)c3n2)C[C@@H]1C1CC1` [Example 440], the IC50 in assay [1] (EGFR enzyme assay) was at least 10000 nM; in assay [2] (setting [5]), at least 5000 nM; in assay [3] (ErbB2 WT enzyme assay), 189 nM; in assay [4] (setting [6]) it was 42.8 nM.
As to `C=CC(=O)N1CCN(c2nc3c(Nc4ccc(Oc5ccn6ncnc6c5)c(Cl)c4F)ncnc3cc2OC)CC1` [Example 148, 1-(4-(4-((4-([1,2,4]triazolo[1,5-a]pyridin-7-yloxy)-3-chloro-2-fluorophenyl)amino)-7-methoxypyrido[3,2-d]pyrimidin-6-yl)piperazin-1-yl)prop-2-en-1-one], the IC50 in assay [1] (EGFR enzyme) came out at 16.1 nM; in assay [2] (setting [7]) it was 69 nM; in assay [3] (ErbB2 WT enzyme) it was 0.6 nM; in assay [4] (ErbB2 YVMA phosphorylation), 4.4 nM.
For `C=CC(=O)N1CCCC[C@@H](c2ccc3ncnc(Nc4ccc(Oc5ccc6c(c5)ncn6C)c(C)c4)c3n2)C1` (single isomer, unassigned) [Example 171] the same measures were at least 10000 nM, at least 5000 nM, 13.4 nM and 26.3 nM.
Regarding `C=CC(=O)N1CCN(c2ccc3ncnc(Nc4ccc(Oc5cc(F)c6c(c5)ncn6C)c(C)c4)c3n2)C[C@@H]1C1CC1` (racemic) [Example 278], the IC50 in assay [1] (EGFR enzyme assay) was found to be 6630 nM; in assay [2] (setting [5]), 1820 nM; in assay [3] (ErbB2 WT enzyme assay), 54.6 nM; in assay [4] (setting [6]) it was 18.1 nM.
For the compound `C=CC(=O)N1C[C@@H]2C[C@H]1CN(c1ccc3ncnc(Nc4cc(C)c(Oc5ccc6c(c5)ncn6C)cc4F)c3n1)C2` [Example 102, 1-((1R,5S)-3-(4-((2-fluoro-5-methyl-4-((1-methyl-1H-benzo[d]imidazol-5-yl)oxy)phenyl)amino)pyrido[3,2-d]pyrimidin-6-yl)-3,6-diazabicyclo[3.2.1]octan-6-yl)prop-2-en-1-one], the IC50 in assay [1] (EGFR enzyme) was at least 10000 nM; in assay [2] (setting [7]), at least 5000 nM; in assay [3] (ErbB2 WT enzyme) it was 461 nM; in assay [4] (ErbB2 YVMA phosphorylation), 15.4 nM.
